Each structure is given as a SMILES string.

In the assay the target is T1, glucokinase (GK), human enzyme (Homo sapiens, UniProt P35557).
T1 sequence (P35557 1-465): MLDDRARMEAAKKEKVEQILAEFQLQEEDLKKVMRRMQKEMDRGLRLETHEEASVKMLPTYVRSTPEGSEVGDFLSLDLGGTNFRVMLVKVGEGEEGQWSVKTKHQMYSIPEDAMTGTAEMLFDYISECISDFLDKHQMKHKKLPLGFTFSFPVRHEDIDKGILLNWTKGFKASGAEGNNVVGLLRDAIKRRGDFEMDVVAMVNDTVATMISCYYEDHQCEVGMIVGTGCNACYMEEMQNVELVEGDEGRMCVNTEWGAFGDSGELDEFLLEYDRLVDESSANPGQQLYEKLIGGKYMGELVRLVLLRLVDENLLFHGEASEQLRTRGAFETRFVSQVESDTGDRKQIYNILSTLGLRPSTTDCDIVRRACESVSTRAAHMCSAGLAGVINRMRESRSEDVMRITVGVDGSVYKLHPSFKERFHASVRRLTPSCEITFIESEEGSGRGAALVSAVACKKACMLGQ
Put plainly: Glucokinase Activation Screening Assay (coupled enzyme assay with PK/LDH, NADH decline at 340 nm). It is filed as biochemical. The conditions noted are these: 2 mM glucose. The protocol:
Glucokinase Activation Screening Assay
GK activity (human or rat enzyme) is measured by an coupled enzyme assay using pyruvate kinase (PK) and lactate dehydrogenase (LDH) as coupling enzymes. GK activity is calculated from the decline in NADH monitored photometrically with a microliter plate (MTP) reader at 340 nm. For screening purposes, the GK assay is routinely run in a 384-MTP format, in a total volume of 33 μl/well. 10 μl of the ATP-regeneration solution (in HEPES-buffer*, pH 7.0, 6.73 U/ml pyruvate kinase, 6.8 U/ml lactate dehydrogenase) and 10 μl of the glucokinase-/glucose solution (15 μg/ml, 6.6 mM glucose in HEPES-buffer*, pH 7.0; the concentration of the glucose stock-solution was 660 mM in Millipore H2O) were mixed together with 3 μl of a 10% DMSO solution (in HEPES-buffer*, pH 7.0) containing […] the amounts of the compounds to achieve final compound concentrations in the range between 1 nM to 30 μM (sometimes 300 μM) in the assay solution (s. below). The solutions were mixed for 5 sec, and after a centrifugation at 243×g for 5 min, the solutions were preincubated for 25 min at room temperature.
The reaction was started by the addition of 10 μl of the NADH-/ATP-solution (4.29 mM NADH, 4.95 mM ATP, in HEPES-buffer*). The MTP was shaken for 5 sec., and then, the absorbance at 340 nm was monitored continuously in a MTP-reader (TECAN Spectro fluor plus) for the next 27 min (with a MTP-cycling time of 199 sec.). The final concentrations of the various components were as follows: 49.5 mM Hepes, pH 7.0, 1.49 mM PEP, 1.3 mM NADH, 49.5 mM KCl, 4.96 mM MgCl2, 1.5 mM Mg-ATP, 1.98 mM DTT, 2.04 U/ml pyruvate kinase, 2.06 U/milactate-dehydrogenase, 0.91% DMSO, 0.15 μg/well glucokinase, and test compounds in the range between 1 nM and 300 μM.
The change in the optical density (ΔOD340 nm) in the presence of the compound was expressed relative to the ΔOD340 nm, ctrl of the control incubation (in the presence of 2 mM glucose and 0.91% DMSO), taking into account the optical density of the blank sample (incubation in the absence of 2 mM glucose). For the determination of the half maximal effective concentration (EC50), the %-Ctrl-values were plotted in a semi-logarithmic graph against the conc. of the compound of interest. The data points were fitted to a sigmoid curve function (f(x)=((%-Ctrlmax-%-Ctrlmin)/(1−(EC50/x**^n(Hill)))%-Ctrlmin)) by a non-linear regression analysis. • Hepes-buffer (50 mM Hepes, pH 7.0, 5 mM MgCl2, 50 mM KCl, 1.5 mM PEP, 0.1% BSA). DTT was added to the Hepes-buffer from a 200× stock solution (in Millipore H2O) freshly each day. The final concentration of DTT in the Hepes-buffer is 2 mM. Culture of Pancreatic INS-1 Cells
For `CC(C)Oc1cc(OCc2ccccc2)cc(C(=O)Nc2ccn(Cc3ccccn3)n2)c1` [A1, 3-Benzyloxy-5-isopropoxy-N-(1-pyridine-2-ylmethyl-1H-pyrazol-3-yl)-benzamide], the EC50 is 1000 to 10000 nM. Molecule `Cc1cc(NC(=O)c2cc(OCc3ccccc3)cc(OC(C)C)c2)nn1Cc1ccccn1` [A2, 3-Benzyloxy-5-isopropoxy-N-(5-methyl-1-pyridine-2-ylmethyl-1H-pyrazole-3-yl)-benzamide] came in with a half-maximal effective concentration (EC50) of 1000 to 10000 nM.

Molecule `CC(C)Oc1cc(OCc2ccccc2)cc(C(=O)Nc2ccn(Cc3ccccc3)n2)c1` [A3, 3-Benzyloxy-N-(1-benzyl-1H-pyrazol-3-yl)-5-isopropoxy-benzamide] yielded a 50% effective concentration (EC50) of 10 to 1000 nM.

Regarding `COC[C@H](C)Oc1cc(O[C@@H](C)Cc2ccccc2)cc(C(=O)Nc2ccn(Cc3ccccc3)n2)c1` [A4], the EC50 was in the range of 10 to 1000 nM. Regarding `COC[C@H](C)Oc1cc(O[C@@H](C)Cc2ccccc2)cc(C(=O)Nc2ccn(Cc3ccccn3)n2)c1` [A5, 3-((S)-2-Methoxy-1-methyl-ethoxy)-5-((S)-1-methyl-2-phenyl-ethoxy)-N-(1-pyridine-2-ylmethyl-1H-pyrazole-3-yl)-benzamide], the EC50 is 10 to 1000 nM. Regarding `CC(C)Oc1cc(OCCc2ccsc2)cc(C(=O)Nc2ccn(Cc3ccccn3)n2)c1` [A6, 3-isopropoxy-N-(1-pyridine-2-ylmethyl-1H-pyrazole-3-yl)-5-(2-thiophene-3-yl-ethoxy)-benzamide], the EC50 was 10 to 1000 nM. As for `COC[C@H](C)Oc1cc(O[C@@H](C)Cc2ccccc2)cc(C(=O)Nc2ccn(Cc3cccnc3)n2)c1` [A7, 3-((S)-2-methoxy-1-methyl-ethoxy)-5-((S)-1-methyl-2-phenyl-ethoxy)-N-(1-pyridine-3-ylmethyl-1H-pyrazole-3-yl)-benzamide], the EC50 lay within 10 to 1000 nM.

On to `COC[C@H](C)Oc1cc(O[C@@H](C)Cc2ccccc2)cc(C(=O)Nc2ccn(Cc3ccncc3)n2)c1` [A8, 3-((S)-2-methoxy-1-methyl-ethoxy)-5-((S)-1-methyl-2-phenyl-ethoxy)-N-(1-pyridine-4-ylmethyl-1H-pyrazole-3-yl)-benzamide], for which the concentration for a half-maximal effect (EC50) is 10 to 1000 nM. On to `CC(C)Oc1cc(OCCc2ccsc2)cc(C(=O)Nc2ccn(Cc3ccccc3)n2)c1` [A9, N-(1-Benzyl-1H-pyrazol-3-yl)-3-isopropoxy-5-(2-thiophen-3-yl-ethoxy)-benzamide], for which the EC50 was 10 to 1000 nM. On to `COC[C@H](C)Oc1cc(Oc2ccc(S(C)(=O)=O)cc2)cc(C(=O)Nc2ccn(Cc3cccnc3)n2)c1` [A10], for which the EC50 was in the range of 10 to 1000 nM.

For orientation: EC50 means the concentration giving half of the maximal effect. High values mean weaker potency, low ones greater potency.
